We go through eight molecules from paper PMC8107043 (Bioorganic & Medicinal Chemistry Letters, 2021).

The target of data set [1] is SARS-CoV-2 PLpro (Severe acute respiratory syndrome coronavirus 2, UniProt P0DTD1). The data set can be described thus: Papain-like protease. The format is biochemical. Particulars: read-out: Percent inhibition against PLpro, 100 µg/mL, mean ± SEM of 3 replicas.
In data set [2] the target is SARS-CoV-2 M^pro (Severe acute respiratory syndrome coronavirus 2, UniProt P0DTD1). In kind it is biochemical. The note with it: read-out: IC50 against M^pro; dose-response 25-200 µg/mL.
For data set [3], the system named is normal human fibroblast cells (HDF). The data set can be described thus: Cell viability MTT assay. Particulars: in words. The format is cell-based.
For data set [4], the system named is SARS-CoV-2. The note with it: in words; cited from earlier work.

Take `COc1ccc(/C=C\C(=O)NC(=S)Nc2ccc(S(=O)(=O)NC(N)=O)cc2)cc1OC` [Compound 9]: the inhibition at 100 µg/mL in data set [1] is ≤ 40%.

Consider `COc1cc(C(NC2=NC(=O)C(CC(=O)Nc3ccc(C(=O)O)cc3)S2)c2c(O)[nH]c(=O)[nH]c2=O)ccc1O` (stereo not drawn) [Compound 7], for which the IC50 in data set [2] is 450 nM. The “toxicity on mammalian cells” value in data set [3] was “no toxicity”. In the case of `N=C(N/N=C/c1ccccc1O)c1nonc1NCNc1nonc1C(=N)N/N=C/c1ccccc1O` [Compound 13], in data set [3], the “toxicity on mammalian cells” value is “no toxicity”.

For `CCOC(=O)C(Cc1c[nH]c2ccccc12)NC(=O)CCC(=O)Nc1ccc(S(N)(=O)=O)cc1` (stereo not drawn) [Compound 2], the inhibition at 100 µg/mL in data set [1] is ≤ 40%.

Turning to `COc1cc(CC(C)NCc2cc(NC(=O)c3ccccn3)cc(C(=O)N(C)C)c2)ccc1O` (stereo not drawn) [Compound 12], in data set [1], the inhibition at 100 µg/mL was ≤ 40%. As for `CC(C)c1nc(CN(C)C(=O)N[C@H](C(=O)N[C@@H](Cc2ccccc2)C[C@H](O)[C@H](Cc2ccccc2)NC(=O)OCc2cncs2)C(C)C)cs1` [ritonavir], the “outcome in clinical trial as anti-SARS-CoV-2 inhibitors” value in data set [4] was “failed in the clinical trial”. Turning to `Cc1cccc(C)c1OCC(=O)N[C@@H](Cc1ccccc1)[C@@H](O)C[C@H](Cc1ccccc1)NC(=O)[C@H](C(C)C)N1CCCNC1=O` [lopinavir], the “outcome in clinical trial as anti-SARS-CoV-2 inhibitors” value in data set [4] is reported as “failed in the clinical trial”.

For the molecule `O=C(CSc1nnc2c(n1)[nH]c1ccccc12)Nc1cccc(S(=O)(=O)N2CCOCC2)c1` [Compound 8], the inhibition at 100 µg/mL in data set [1] was ≤ 40%.

The term IC50 denotes the midpoint of a concentration-inhibition curve.
